Legend:
USP1 = target: T1, USP1 (Homo sapiens, UniProt O94782); experiment: K63-linked di-ubiquitin gel-based hydrolysis assay with purified USP1/UAF1; also probe labeling in cells and SILAC-MS; type: biochemical
T1 construct: recombinant human His6-USP1/UAF1 complex; with UAF1
Excerpt: K63-linked di-ubiquitin gel-based hydrolysis assay with purified USP1/UAF1; also probe labeling in cells and SILAC-MS on USP1 | hydrolysis of di-Ub by purified USP1 in complex with its activator UAF1 ... Dose dependent inhibition was observed

USP16 = USP16 (Homo sapiens, UniProt Q9Y5T5); experiment: SILAC-MS competitive activity profiling (biotin-Ub-PA/VME) in HeLa lysate, […] PEITC; type: cell-based
Sequence of USP16 (Q9Y5T5 whole entry): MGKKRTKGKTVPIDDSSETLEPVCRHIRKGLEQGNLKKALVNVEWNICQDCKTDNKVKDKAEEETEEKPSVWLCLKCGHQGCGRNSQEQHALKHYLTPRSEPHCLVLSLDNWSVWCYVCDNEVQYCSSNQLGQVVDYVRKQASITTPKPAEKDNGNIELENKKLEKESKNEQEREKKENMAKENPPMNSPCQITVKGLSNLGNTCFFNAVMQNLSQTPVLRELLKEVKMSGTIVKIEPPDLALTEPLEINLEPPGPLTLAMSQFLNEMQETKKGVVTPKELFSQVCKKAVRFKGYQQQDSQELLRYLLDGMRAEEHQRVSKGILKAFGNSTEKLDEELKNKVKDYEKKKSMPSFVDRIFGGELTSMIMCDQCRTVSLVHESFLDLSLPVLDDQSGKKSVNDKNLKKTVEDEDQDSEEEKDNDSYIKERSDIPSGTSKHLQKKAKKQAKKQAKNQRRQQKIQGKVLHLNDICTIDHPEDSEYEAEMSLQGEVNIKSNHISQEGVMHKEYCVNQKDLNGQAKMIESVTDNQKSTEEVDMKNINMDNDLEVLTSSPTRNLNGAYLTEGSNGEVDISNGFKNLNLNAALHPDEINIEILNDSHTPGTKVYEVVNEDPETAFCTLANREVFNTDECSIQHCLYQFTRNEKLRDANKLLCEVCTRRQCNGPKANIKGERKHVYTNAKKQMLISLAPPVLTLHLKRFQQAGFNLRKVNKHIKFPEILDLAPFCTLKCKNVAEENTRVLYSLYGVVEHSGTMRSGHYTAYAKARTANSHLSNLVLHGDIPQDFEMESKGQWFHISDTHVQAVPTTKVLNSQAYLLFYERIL

USP3 = target: T2, USP3 (Homo sapiens, UniProt Q9Y6I4); experiment: Biotin-Ub-PA/VME activity-probe labeling with immunoblot after treatment of HEK293T cells; SILAC-MS in HeLa lysate; type: cell-based
T2 sequence (Q9Y6I4 1-520): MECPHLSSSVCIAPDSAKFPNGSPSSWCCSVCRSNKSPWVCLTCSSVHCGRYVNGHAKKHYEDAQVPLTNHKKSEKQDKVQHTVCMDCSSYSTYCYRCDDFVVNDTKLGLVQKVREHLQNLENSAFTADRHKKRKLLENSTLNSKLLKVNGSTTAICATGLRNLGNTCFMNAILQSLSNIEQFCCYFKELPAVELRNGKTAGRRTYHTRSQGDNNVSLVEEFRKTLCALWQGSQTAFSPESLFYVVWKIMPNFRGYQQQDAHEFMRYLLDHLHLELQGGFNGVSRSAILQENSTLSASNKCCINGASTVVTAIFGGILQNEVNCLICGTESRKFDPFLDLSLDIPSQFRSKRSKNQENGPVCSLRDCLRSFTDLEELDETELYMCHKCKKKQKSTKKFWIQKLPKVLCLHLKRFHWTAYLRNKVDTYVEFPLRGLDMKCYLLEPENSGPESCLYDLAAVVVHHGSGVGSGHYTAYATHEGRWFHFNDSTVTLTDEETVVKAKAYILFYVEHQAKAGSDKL

UCH37 = target: T3, UCH37 (Homo sapiens, UniProt Q9Y5K5); experiment: d5/d0-NEM differential cysteine labeling LC-MS/MS on recombinant UCH37/ADRM1; also Ub-Rho110MP hydrolysis inhibition and activity-probe competition; type: binding
T3 construct: gene UCHL5; Human UCH37 (isoform 1) with an N-terminal 6x histidine tag; with ADRM1 (RPN13)
T3 sequence (Q16186 2-407): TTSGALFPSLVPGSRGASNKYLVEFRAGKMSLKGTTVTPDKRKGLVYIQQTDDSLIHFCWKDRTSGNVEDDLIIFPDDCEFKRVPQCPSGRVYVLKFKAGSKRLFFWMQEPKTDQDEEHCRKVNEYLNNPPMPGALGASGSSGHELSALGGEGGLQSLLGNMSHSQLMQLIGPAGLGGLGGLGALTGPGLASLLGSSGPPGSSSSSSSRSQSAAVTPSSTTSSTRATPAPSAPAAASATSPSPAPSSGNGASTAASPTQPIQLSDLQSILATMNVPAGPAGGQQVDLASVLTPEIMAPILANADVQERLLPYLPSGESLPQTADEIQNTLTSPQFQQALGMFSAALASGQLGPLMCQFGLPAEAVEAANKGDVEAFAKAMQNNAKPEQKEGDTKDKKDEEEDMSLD
T3 sequence (Q9Y5K5 whole entry, canonical isoform): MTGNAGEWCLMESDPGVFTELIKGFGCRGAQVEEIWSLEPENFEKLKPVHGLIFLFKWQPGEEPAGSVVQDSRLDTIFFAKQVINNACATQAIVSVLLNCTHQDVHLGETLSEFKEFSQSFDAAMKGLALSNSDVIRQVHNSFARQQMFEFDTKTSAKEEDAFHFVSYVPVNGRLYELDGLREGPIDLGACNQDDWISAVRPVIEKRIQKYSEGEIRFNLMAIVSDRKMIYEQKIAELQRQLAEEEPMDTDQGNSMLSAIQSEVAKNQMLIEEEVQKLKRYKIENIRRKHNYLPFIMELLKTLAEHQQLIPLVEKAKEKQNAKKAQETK

VCPIP1 = target: T4, VCPIP1 (Homo sapiens, UniProt Q96JH7); experiment: SILAC-MS competitive activity profiling (biotin-Ub-PA/VME) in HeLa lysate, […] PEITC; type: cell-based
T4 sequence (Q96JH7 1-1222): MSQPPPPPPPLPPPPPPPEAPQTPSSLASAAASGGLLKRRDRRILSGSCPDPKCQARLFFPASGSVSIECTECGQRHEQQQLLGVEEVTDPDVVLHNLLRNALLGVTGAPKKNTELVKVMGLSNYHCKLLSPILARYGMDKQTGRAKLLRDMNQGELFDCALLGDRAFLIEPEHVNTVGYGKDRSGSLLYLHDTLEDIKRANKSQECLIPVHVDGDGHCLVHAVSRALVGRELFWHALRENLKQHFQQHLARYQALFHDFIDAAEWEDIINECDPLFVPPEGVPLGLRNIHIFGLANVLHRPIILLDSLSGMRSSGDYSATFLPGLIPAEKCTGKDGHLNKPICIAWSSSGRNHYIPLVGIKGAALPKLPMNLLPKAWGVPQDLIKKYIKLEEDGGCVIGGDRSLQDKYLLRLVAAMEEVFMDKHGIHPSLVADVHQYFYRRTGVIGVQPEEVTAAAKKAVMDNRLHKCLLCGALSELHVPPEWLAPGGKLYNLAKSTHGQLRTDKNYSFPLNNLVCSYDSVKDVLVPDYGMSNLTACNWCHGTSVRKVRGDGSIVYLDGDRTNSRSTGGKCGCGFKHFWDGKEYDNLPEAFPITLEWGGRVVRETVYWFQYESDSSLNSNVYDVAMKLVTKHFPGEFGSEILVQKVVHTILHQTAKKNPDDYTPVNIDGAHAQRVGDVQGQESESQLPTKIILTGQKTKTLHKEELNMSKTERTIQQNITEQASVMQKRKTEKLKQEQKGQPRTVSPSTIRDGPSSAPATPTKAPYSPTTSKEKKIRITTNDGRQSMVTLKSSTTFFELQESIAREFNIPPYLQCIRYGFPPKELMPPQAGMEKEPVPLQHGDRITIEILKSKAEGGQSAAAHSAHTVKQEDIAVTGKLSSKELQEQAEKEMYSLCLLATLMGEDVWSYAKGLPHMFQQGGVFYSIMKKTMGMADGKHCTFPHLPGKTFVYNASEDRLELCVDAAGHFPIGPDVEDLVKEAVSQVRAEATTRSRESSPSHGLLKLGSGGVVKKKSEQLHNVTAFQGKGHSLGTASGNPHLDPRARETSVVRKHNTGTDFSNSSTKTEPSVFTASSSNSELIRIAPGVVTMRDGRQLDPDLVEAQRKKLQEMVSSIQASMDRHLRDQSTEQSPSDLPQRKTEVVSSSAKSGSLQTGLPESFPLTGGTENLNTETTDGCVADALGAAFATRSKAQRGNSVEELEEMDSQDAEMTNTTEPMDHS

T1 sequence (O94782 whole entry): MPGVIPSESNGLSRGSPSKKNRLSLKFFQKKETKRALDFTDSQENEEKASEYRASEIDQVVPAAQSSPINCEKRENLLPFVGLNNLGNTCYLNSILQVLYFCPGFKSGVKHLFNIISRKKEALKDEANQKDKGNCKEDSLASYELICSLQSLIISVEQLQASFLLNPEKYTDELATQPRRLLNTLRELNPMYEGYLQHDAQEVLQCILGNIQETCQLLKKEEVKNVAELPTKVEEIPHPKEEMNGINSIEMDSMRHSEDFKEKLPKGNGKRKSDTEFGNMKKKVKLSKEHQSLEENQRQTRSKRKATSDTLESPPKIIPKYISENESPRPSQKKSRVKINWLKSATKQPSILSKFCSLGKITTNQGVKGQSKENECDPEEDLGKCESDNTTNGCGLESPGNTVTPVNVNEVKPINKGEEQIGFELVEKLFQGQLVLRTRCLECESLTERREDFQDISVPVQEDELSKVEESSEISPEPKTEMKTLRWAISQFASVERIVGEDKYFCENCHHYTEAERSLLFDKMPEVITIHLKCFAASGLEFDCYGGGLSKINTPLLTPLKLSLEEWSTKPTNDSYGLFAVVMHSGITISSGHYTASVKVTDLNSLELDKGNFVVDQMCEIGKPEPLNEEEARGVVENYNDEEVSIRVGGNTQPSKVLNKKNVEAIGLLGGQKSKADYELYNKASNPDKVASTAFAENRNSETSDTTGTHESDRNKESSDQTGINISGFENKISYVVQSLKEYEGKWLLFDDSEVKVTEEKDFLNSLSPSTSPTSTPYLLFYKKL
T1 sequence (Q8TAF3 whole entry partner): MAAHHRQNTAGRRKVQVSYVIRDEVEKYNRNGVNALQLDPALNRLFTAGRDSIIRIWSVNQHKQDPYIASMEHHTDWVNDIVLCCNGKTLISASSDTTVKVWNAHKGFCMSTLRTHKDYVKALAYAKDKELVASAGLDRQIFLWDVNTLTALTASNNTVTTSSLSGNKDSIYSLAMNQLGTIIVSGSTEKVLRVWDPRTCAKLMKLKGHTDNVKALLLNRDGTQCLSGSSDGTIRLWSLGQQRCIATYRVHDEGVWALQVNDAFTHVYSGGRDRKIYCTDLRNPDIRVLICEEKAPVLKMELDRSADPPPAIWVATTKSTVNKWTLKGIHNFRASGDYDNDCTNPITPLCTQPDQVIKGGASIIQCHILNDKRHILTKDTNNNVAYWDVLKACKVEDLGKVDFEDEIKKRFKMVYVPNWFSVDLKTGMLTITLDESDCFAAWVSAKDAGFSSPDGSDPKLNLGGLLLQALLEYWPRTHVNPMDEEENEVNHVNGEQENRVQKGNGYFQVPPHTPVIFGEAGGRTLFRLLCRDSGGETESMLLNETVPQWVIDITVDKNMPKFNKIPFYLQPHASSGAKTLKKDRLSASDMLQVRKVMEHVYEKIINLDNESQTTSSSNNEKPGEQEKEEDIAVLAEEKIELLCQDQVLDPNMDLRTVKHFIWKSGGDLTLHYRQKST

S=C=NCCc1ccccc1 [PEITC]
K63-linked di-ubiquitin gel-based hydrolysis assay with purified USP1/UAF1; also (USP1): hydrolysis of di-Ub by purified USP1 in complex with its activator UAF1 ... Dose dependent inhibition was observed
SILAC-MS competitive activity profiling (biotin-Ub-PA/VME) in HeLa lysate, 75 μM (USP16): USP1, USP3, USP16, USP48 and VCPIP1 were only identified in the absence of PEITC
Biotin-Ub-PA/VME activity-probe labeling with immunoblot after treatment of HEK2 (USP3): inhibition of USP3 by PEITC in living cells was confirmed by observing the molecular shift upon probe labeling
d5/d0-NEM differential cysteine labeling LC-MS/MS on recombinant UCH37/ADRM1; al (UCH37): increase in d0-NEM labeling at Cys88, indicating that the active-site cysteine is the site of PEITC modification
SILAC-MS competitive activity profiling (biotin-Ub-PA/VME) in HeLa lysate, 75 μM (VCPIP1): the inhibition of VCPIP1 by PEITC is the first report of inhibition of an OTU domain DUB

From paper PMC5584250, “Identification of deubiquitinase targets of isothiocyanates using SILAC-assisted quantitative mass spectrometry” (Oncotarget, 2017)
